Values quoted from earlier work in patent publication US20190224051A1, “ETNESS INDICATOR WITH HARDENERS AND CRYSTALLIZERS” (The Procter & Gamble Company, priority 2018, published 2019).

Settings: Table 2, stabilizers

## O=P(O)(O)OP(=O)(O)O [Pyrophosphoric Acid]
  pKa (1): 1.5
  pKa (2): 2.4
  pKa (4): 9.2
